Assay [1] deals with Phosphatidylinositol 4,5-bisphosphate 3-kinase catalytic subunit alpha isoform (Homo sapiens, UniProt P42336). Description: Inhibition of human PI3Kalpha preincubated for 15 mins followed by ATP addition measured after 1 hr by TR-FRET assay.
The target in assay [2] is Phosphatidylinositol 4,5-bisphosphate 3-kinase catalytic subunit beta isoform (Homo sapiens, UniProt P42338). In words: Inhibition of human PI3Kbeta preincubated for 15 mins followed by ATP addition measured after 1 hr by TR-FRET assay. Background: In TR-FRET formats the signal depends on donor and acceptor labels being close together.
In assay [3] the target is Phosphatidylinositol 4,5-bisphosphate 3-kinase catalytic subunit gamma isoform (Homo sapiens, UniProt P48736). In words: Inhibition of human PI3Kgamma preincubated for 15 mins followed by ATP addition measured after 1 hr by TR-FRET assay.

Structures are written as SMILES. Where only a bound is given, the exact number is not on record here.

Among the data in BindingDB's records for PubMed 35688004 (University of Hradec Kralove, 2022) are IC50 values, retold here.

Phosphatidylinositol 4,5-bisphosphate 3-kinase catalytic subunit beta isoform, sequence (P42338 whole entry, canonical isoform): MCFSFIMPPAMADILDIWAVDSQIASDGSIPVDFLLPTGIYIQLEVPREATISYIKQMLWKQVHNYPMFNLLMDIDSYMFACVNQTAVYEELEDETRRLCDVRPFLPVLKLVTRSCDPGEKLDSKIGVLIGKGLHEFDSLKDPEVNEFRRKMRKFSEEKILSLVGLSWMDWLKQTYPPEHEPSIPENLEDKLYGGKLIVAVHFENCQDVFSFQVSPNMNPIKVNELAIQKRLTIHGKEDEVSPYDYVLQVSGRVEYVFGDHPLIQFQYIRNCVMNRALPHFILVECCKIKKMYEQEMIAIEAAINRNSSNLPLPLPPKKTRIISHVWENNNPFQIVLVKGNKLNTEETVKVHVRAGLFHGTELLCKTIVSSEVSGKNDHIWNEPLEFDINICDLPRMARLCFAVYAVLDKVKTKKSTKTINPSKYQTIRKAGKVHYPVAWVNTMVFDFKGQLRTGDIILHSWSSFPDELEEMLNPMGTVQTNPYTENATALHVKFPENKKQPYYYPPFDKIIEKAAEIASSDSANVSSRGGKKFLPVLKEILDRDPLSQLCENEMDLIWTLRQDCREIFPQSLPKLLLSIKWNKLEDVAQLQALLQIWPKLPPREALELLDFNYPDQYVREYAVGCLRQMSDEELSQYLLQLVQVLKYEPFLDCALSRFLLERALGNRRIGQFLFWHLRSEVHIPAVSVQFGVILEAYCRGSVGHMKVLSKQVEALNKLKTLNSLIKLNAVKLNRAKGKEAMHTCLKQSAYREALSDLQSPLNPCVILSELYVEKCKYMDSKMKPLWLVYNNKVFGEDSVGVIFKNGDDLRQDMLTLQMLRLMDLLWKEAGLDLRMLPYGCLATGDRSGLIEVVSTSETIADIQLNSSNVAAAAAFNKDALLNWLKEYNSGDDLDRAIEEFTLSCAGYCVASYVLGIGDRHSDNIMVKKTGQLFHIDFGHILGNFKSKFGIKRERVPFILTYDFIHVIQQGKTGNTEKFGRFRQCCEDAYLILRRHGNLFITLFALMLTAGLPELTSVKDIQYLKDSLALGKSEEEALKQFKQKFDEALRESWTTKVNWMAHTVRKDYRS
Phosphatidylinositol 4,5-bisphosphate 3-kinase catalytic subunit alpha isoform, sequence (P42336 whole entry, canonical isoform): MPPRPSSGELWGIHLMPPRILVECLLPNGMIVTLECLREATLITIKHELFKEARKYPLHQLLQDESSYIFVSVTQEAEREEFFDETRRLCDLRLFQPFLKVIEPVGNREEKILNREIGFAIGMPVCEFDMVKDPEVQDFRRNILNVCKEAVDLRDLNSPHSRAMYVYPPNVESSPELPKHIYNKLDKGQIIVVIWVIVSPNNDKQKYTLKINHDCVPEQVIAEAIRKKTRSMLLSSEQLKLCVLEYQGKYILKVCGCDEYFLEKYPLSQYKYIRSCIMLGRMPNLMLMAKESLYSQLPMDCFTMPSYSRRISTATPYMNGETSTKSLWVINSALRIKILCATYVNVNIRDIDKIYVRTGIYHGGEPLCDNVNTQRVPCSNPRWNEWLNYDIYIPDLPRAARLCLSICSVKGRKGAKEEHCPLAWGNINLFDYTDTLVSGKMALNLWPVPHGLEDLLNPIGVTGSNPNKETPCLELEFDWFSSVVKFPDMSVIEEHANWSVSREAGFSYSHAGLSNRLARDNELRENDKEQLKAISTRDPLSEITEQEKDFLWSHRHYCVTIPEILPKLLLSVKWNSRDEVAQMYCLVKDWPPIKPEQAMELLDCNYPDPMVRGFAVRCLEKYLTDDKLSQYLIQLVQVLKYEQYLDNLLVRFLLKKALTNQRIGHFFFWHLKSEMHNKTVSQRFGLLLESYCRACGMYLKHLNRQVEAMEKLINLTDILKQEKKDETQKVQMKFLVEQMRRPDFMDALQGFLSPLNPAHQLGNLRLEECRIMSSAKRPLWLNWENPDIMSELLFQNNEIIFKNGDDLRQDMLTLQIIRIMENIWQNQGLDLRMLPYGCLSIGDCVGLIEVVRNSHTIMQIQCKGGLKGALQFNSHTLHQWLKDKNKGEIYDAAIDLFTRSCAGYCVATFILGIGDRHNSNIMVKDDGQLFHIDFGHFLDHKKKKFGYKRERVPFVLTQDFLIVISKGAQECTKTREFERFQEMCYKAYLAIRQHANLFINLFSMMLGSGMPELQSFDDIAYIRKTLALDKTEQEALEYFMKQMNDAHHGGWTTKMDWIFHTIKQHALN
Phosphatidylinositol 4,5-bisphosphate 3-kinase catalytic subunit gamma isoform, sequence (P48736 whole entry, canonical isoform): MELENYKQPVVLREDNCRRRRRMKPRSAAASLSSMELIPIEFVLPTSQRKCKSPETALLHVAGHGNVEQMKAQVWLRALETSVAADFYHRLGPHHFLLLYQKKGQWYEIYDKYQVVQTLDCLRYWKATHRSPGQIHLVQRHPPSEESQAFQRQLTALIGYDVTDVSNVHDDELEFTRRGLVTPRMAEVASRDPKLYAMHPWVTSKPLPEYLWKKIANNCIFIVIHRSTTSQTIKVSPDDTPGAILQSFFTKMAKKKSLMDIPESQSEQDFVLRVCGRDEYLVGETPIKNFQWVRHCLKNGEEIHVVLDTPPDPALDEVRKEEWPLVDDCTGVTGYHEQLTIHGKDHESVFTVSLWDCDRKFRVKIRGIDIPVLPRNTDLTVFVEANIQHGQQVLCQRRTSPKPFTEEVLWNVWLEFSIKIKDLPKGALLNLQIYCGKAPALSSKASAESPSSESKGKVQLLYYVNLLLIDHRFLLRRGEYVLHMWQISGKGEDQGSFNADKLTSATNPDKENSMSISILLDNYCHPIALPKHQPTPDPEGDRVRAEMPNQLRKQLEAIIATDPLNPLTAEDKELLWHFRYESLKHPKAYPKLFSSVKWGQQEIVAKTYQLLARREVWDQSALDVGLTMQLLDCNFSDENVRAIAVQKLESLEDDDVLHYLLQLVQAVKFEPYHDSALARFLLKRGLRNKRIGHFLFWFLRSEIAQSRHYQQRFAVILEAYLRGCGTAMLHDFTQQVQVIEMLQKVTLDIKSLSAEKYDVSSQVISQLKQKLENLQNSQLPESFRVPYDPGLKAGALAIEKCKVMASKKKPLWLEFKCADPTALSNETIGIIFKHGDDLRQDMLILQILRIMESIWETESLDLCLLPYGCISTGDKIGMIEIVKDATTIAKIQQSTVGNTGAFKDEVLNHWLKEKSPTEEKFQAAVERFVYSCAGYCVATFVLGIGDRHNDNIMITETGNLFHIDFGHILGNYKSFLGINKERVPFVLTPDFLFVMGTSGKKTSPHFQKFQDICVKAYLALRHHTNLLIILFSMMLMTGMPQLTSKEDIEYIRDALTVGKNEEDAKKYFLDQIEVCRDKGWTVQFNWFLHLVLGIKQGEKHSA

A word on the IC50: it is the concentration that inhibits the measured activity by half. Low readings indicate greater potency in that assay, high ones weaker potency in that assay. For the molecule `Nc1ncnc2c1c(-c1cc3cc(O)ccc3[nH]1)nn2C1CCOCC1` [US10172858, Table 2.42], the IC50 in assay [1] and in assay [2] was greater than 500 nM in each case. Take `Nc1ncnc2c1c(-c1cc3cccc(O)c3[nH]1)nn2C1CCOCC1` [US10172858, Table 2.62]: the IC50 in assay [1], in assay [3] and in assay [2] was greater than 500 nM each time. Take `COc1cccc2cc(-c3nn(C4CCOCC4)c4ncnc(N)c34)[nH]c12` [US10172858, Table 2.63]: the IC50 in assay [2] is greater than 500 nM. The same measure, in the same setting: the value for `Nc1ncnc2c1c(-c1cc3cc(O)cc(Cl)c3[nH]1)nn2C1CCOCC1` [US10172858, Table 2.68] was greater than 500 nM. Consider `CC(=O)N1CCC(n2nc(-c3cc4c(Cl)ccc(O)c4[nH]3)c3c(N)ncnc32)CC1` [US10172858, Table 2.69], for which the IC50 in assay [1], in assay [3] and in assay [2] was greater than 500 nM each time. With `CC(=O)N1CCC(n2nc(-c3cc4cc(O)cc(Cl)c4[nH]3)c3c(N)ncnc32)CC1` [US10172858, Table 2.70], the 50% inhibitory concentration (IC50) in assay [2] is greater than 500 nM.
